Ends that are not written are not given here.
Tests used:
[1] = tested on: lung cancer cells or plasma membranes derived therefrom; test: direct binding of labeled thymosin to lung cancer cells or plasma membranes; conditions: 125I-Tyr labeled ligand
Text: Direct, i.e., noncompetitive, binding of a labeled ligand to intact cells or plasma membranes may be determined. […] These and other experiments not detailed here indicate that the thymosins may not have specific receptors. Palaszynski, E., Biochemical Studies on Thymosin α1, Ph.D. Thesis, George Washington University, Washington, D.C., 1981. It is thus all the more suprising and unexpected that certain thymosins have such profound inhibitory effects on the binding of VIP to its specific receptors and on the growth promoting effects of VIP in lung cancer cells.

[2] = tested on: NCI-H510 lung cancer cells; test: NCI-H510 growth in vivo; design: species or system nude mice; conditions: 10 μg s.c. daily, week 4, mean of 3 tumors
Description: In a procedure substantially as set forth in Moody et al. (1993) supra, NCI-H510 lung cancer cells were injected into nude mice, and tumors formed after one week. The compounds listed in Table V below (produced as described above) were injected (100 microliters) subcutaneously daily. Tumors were measured at week 4.

[3] = tested on: NCI-H1299 lung cancer cells; test: 3H-arachidonic acid (AA) release; type: cell-based; conditions: 1 μM; 4 determinations
Description: In a procedure substantially as set forth in Moody et al. (1993) supra, NCI-H1299 lung cancer cells were loaded with ^3 H-AA overnight, and after removal of free ^3 H-AA cells, were treated with increasing concentrations of THNα1(1-16)amide (Δ), THNα1 (.largecircle.) and THNα1amide (.box-solid.) (produced as described above). The mean value ± S.E. of 4 determinations is indicated; *,p<0.05; ** p<0.01.

[4] = tested on: tumors of both SCLC and NSCLC types of lung cancer cells; design: species or system nude mice; conditions: mouse, in vivo
[5] = tested on: NCI-H720 (lung carcinoid cancer cells); test: soft agar colonization, NCI-H720; type: cell-based; conditions: 1 μM; for NCI-H720 (carcinoid) colonies: colonies greater than 50 μm, mean ± S.E. of 3
Description: (§1) The effects of THNα1 on the growth of lung cancer cell lines was studied. Single viable cells were plated in soft agar as previously described (Mahmoud, S., et al., Life Sci., 44:367 (1989)), and, after two weeks, the colonies were stained with 0.1% p-iodonitrotetrazolium violet.
(§2) The experimental conditions of Example 3 were repeated with NCI-H720 (lung carcinoid cancer cells) and NCI-N417 (SCLC lung cancer cells) cell lines. Colonies were counted as before.

lung cancer cells = test: in vitro colonization of lung cancer cells (general statement); type: cell-based
Description: Candidate anti-lung cancer peptides and antibodies may be screened in vitro in a soft agar colonization assay such as that described by Mahmoud, S., et al., Life Sci., 44:367 (1989) which is herein incorporated by reference. In general, single viable lung cancer cells are plated in soft agar. After an appropriate growth period, such as 14 days, cell colonies may be stained with an appropriate cytochemical stain, and the stained cells viewed microscopically. Cytochemical stains are well known to those skilled in the art of histology.

[6] = tested on: NCI-N417 (SCLC lung cancer cells); test: soft agar colonization, NCI-N417; type: cell-based; conditions: 1 μM; for (SCLC) N417 colonies: colonies greater than 50 μm, mean ± S.E. of 3
Description: as §1, §2

For “(^125 I-Tyr)-labeled THNα1: 125I-Tyr labeled THNα1 used for direct binding analyses (SDAAVDTSSEITTKDLKEKKEVVEEAEN; ends and bridges not checked; also: 125I-Tyr label, place not given here; UniProt P06454 2-29, looked up)”, the “direct (noncompetitive) binding affinity” value [1] was “bind with poor affinity”.
For “Ac-SDAAVDTSSEITTKDL-NH2 [THNα1-N16 (1-16) amide, Ac-Ser-Asp-Ala-Ala-Val-Asp-Thr-Ser-Ser-Glu-Ile-Thr-Thr-Lys-Asp- Leu-NH2]”, the Tumor volume [2] was 410 mm^3, the Tumor volume ([2]; listed as THNα1-N16 (1-16)amide) was “strongly inhibit” and the 3H-AA release [3] was “significantly stimulate”.
With “Ac-SDAAVDTSSEITTKDLKEKKEVVEEAEN [THNα1, thymosin α1]” the toxic side effects [4] was “No toxic side effects were observed”.
In the case of “thymosin β4 (SDKPDMAEIEKFDKSKLKKTETQEKNPLPSKETIEQEKQAGES; Thymosin beta-4; UniProt P62328 2-44, looked up) [THN β4, a 43-amino acid peptide, MW 4982]”, the “N/No, NCI-H720” value [5] is reported as 0.93, the “NCI-H720 (carcinoid) colonies” value [5] is reported as 68 ± 20 and the “NCI-H720 (carcinoid) colonies” value ([5]; listed as THNβ4) is reported as “did not influence colony number significantly”. For the same substance, the “colony formation of lung cancer cells in vitro” value (lung cancer cells) was “little effect”, the “N/No, N417” value [6] was 1.20 and the “(SCLC) N417 colonies” value [6] was 240 ± 68. For the same substance, the “(SCLC) N417 colonies” value ([6]; listed as THNβ4) was “did not influence colony number significantly”.

— US5721211A, “Compositions and methods for treating small cell and nonsmall cell lung cancers” (The George Washington University, priority 1993, dated 1998)
